Measured values from patent publication US20260102427A1, “COMPOSITIONS OF NANOPARTICLES FOR TREATMENT OF NEUROPATHIC PAIN” (NANOBIOTIX S.A., priority 2022, published 2026).

Assays:
Type in all cases: in vivo, rat
[1] = tested on: oxaliplatin-induced mechanical allodynia; assay: Example 5: mechanical allodynia (von Frey PWT) in oxaliplatin chemotherapy-induced peripheral neuropathy model; details: Pregabalin 30 mg/kg p.o. each test day, tested 2 hr post dose
Procedure: The aim of this study was to investigate the effect of a single intraplantar treatment with Nanoparticles from Example 1 (NP1B) at the dose of 11 g/L, Nanoparticles from Example 2 (NP2B) at 53 g/L, Nanoparticles from Example 3 (NP20B) at 57 g/L, and Nanoparticles from Example 4 (NP20A) at 59 g/L, each in 20 μL of injection volume, on the mechanical allodynia (as assessed using von Frey) that occurs following systemic administration of oxaliplatin in the rat.
Experimental subjects: Seventy-two (72) adult male Sprague-Dawley rats were used for this study. […]
(§1) Static mechanical (tactile) allodynia evaluation: Measurement of paw withdrawal threshold (PWT) was achieved using calibrated (force; g) von-Frey monofilaments (Touch-Test Sensory Evaluator; Scientific Marketing Associates) applied to the plantar surface of the hind paw. Withdrawal threshold was determined by increasing and decreasing stimulus intensity and estimated using Dixon's up-down method. […]
Baseline readings for latency to withdrawal (sec) were assessed on three consecutive days (Day −3, Day −2 and Day −1). […]
Mechanical allodynia was subsequently re-assessed 2-3 times per week following injection, out to D26 post-oxaliplatin. […]

[2] = tested on: oxaliplatin-induced mechanical allodynia; assay: Example 6: mechanical allodynia (von Frey PWT) in oxaliplatin CIPN model, dose effect, left (treated) vs right (vehicle) paw; details: Pregabalin 30 mg/kg p.o. each test day; both left and right paws
Source text: Animals were allowed to recover from transportation for at least one week before commencing experiments.
Data is presented as mean±SEM.

[3] = tested on: STZ-induced mechanical allodynia; assay: Example 7: mechanical allodynia (von Frey PWT) in streptozotocin diabetes-induced peripheral neuropathy model; details: Pregabalin 30 mg/kg p.o. 2 hr prior to each Von Frey test
Procedure: The aim of the study is to investigate the effect of a single intraplantar treatment with Nanoparticles from Example 3 at the doses of 117 g/L in 20 μL of injection volume, 58 g/L in 20 μL of injection volume, and 18 g/L in 10 μL of injection volume on the mechanical allodynia (as assessed using von Frey) that occurs following systemic administration of Streptozocin in the rat.
Experimental subjects: Sixty-six (66) adult male Sprague-Dawley rats (180-210 g) were used for this study. […]
Confirmation of hyperglycaemia: On Day 7 (D7) one drop of tail vein blood was obtained by a needle prick on the conscious rats. The blood glucose levels were measured in one drop of blood using an Exactive Vital (MictoTech Medical) blood glucose monitor. […]
as §1, with “allodynia:” for “allodynia evaluation:”, “of” for “of paw”, “threshold” for “threshold (PWT)”, “method (Dixon, 1980; Chaplan et al., 1994).” for “method.”
Von Frey readings are taken at baseline (pre-STZ), at D9 and at D11 post-STZ (neuropathic/allodynia baseline) and 2 hours post dose on D14. Von-Frey readings are repeated twice per week up to 3 weeks post-STZ (1 week post nanoparticles dosing). […]

**Q.** How did the “PWT, allodynic response (positive control)” value [1] turn out when `CC(C)C[C@H](CN)CC(=O)O` [Pregabalin] was run?
**A.** rescued the allodynic response and recovered the PWT to the healthy baseline levels

**Q.** What about the “PWT levels compared to ‘Vehicle/Vehicle’ group (not neuropathic)” value [2] of the same compound?
**A.** not significantly different from the ‘Vehicle/Vehicle’ group (not neuropathic) on any of the test days

**Q.** What about the “PWT levels compared to “STZ/Vehicle” group” value [3] of the same compound?
**A.** significantly different from the “STZ/Vehicle” group on all days tested
